Consider 16 compounds from patent US12521440B2, “Degradation of bruton's tyrosine kinase (BTK) by conjugation of BTK inhibitors with E3 ligase ligand and methods of use” (BeOne Medicines I GmbH, priority 2021, dated 2026).

Structures can show the parent of a compound that is named as a salt.

One assay concerns HEK-293 cells. Description: HEK-293 cytotoxicity detection (CellTiter-Glo). The format is cell-based. Particulars: Homo sapiens, 72 h incubation, read-out: HEK293. Put shortly:
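HEK-293 cells exposed 72 h to 8 compound concentrations (4-fold dilution series, 0.2% DMSO). Viability read as CellTiter-Glo luminescence; IC50 from four-parameter logistic fit of percent inhibition.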
Background: Cellular ATP, detected with luciferase, serves as a proxy for viable cell number.

A further assay deals with T1, BTK (Homo sapiens, UniProt Q06187).
T1 construct: endogenous in cells; host or cells: TMD-8 cells
T1 sequence (Q06187 whole entry): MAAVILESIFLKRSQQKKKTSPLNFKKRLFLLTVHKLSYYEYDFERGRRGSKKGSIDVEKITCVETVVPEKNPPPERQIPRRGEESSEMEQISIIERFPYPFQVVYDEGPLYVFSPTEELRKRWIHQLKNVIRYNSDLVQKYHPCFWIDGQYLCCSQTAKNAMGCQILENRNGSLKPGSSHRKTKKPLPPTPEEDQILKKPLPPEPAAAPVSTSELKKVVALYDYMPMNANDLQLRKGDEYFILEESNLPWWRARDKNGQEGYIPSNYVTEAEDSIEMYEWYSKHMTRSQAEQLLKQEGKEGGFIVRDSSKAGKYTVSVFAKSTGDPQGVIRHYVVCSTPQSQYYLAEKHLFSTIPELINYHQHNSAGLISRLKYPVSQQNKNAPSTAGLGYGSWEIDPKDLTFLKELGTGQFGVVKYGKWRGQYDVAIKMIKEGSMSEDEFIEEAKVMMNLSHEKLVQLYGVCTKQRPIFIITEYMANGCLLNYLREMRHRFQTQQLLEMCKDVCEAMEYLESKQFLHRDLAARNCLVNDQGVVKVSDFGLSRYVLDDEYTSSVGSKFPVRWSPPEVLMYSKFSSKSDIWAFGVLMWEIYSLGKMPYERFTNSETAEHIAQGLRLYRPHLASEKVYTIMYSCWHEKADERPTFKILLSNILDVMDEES
Put plainly: BTK degradation in TMD-8 cells (HTRF assay). The format is cell-based. Particulars: 6 h treatment, HTRF BTK degradation IC50 (DC50). Summed up:
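TMD-8 cells exposed to 8 concentrations (6-fold serial dilution from 1 mM 500× DMSO stocks; 0.2% DMSO final) for 6 h. Lysates incubated overnight at room temperature with HTRF antibodies, read at 665/620 nm. DC50 from four-parameter logistic fit of percent inhibition.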
Background: TR-FRET usually uses a lanthanide donor and a delayed reading to cut background.

The term DC50 denotes the concentration at which degradation of the target reaches its halfway point. The low end stands for degradation at low concentration, the high end for degradation only at high concentration. Consider `Cc1cc(-c2cc(Nc3ccc(N4CCC5(CC4)CN(C(=O)C4CCN(c6ccc(N7CCC(=O)NC7=O)cc6)C4)C5)cn3)ncn2)ccc1[C@@H](C)NC(=O)c1nc(C(C)(C)C)no1` (stereo partly drawn) [Example 38, 3-(tert-butyl)-N-((1R)-1-(4-(6-((5-(2-(1-(4-(2,4-dioxotetrahydropyrimidin-1(2H)-yl)phenyl)pyrrolidine-3-carbonyl)-2,7-diazaspiro[3.5]nonan-7-yl)pyridin-2-yl)amino)pyrimidin-4-yl)-2-methylphenyl)ethyl)-1,2,4-oxadiazole-5-carboxamide], for which, in the assay on HEK-293 cells, the IC50 is over 10000 nM. The same compound returned a DC50 at BTK of 0.954 nM.
In the same order, the values of `Cc1cc(-c2cc(Nc3ccc(N4CCN(C5CN(C6CN(c7ccc(N8CCC(=O)NC8=O)cc7)C6)C5)CC4)cn3)ncn2)ccc1[C@@H](C)NC(=O)c1nc(C(C)(C)C)no1` [Example 39, (R)-3-(tert-butyl)-N-(1-(4-(6-((5-(4-(1′-(4-(2,4-dioxotetrahydropyrimidin-1(2H)-yl)phenyl)-[1,3′-biazetidin]-3-yl)piperazin-1-yl)pyridin-2-yl)amino)pyrimidin-4-yl)-2-methylphenyl)ethyl)-1,2,4-oxadiazole-5-carboxamide] are over 10000 nM and 0.209 nM.
Consider `Cc1cc(-c2cc(Nc3ccc(N4CCN(C5CN(c6ccc(N7CCC(=O)NC7=O)cc6)C5)CC4)cn3)ncn2)ccc1[C@@H](C)NC(=O)c1nc(C(C)(C)C)no1` [Example 40, (R)-3-(tert-butyl)-N-(1-(4-(6-((5-(4-(1-(4-(2,4-dioxotetrahydropyrimidin-1(2H)-yl)phenyl)azetidin-3-yl)piperazin-1-yl)pyridin-2-yl)amino)pyrimidin-4-yl)-2-methylphenyl)ethyl)-1,2,4-oxadiazole-5-carboxamide], for which the IC50 with HEK-293 cells was over 10000 nM. The same compound yielded a DC50 at BTK of 0.382 nM.
As for `Cc1cc(-c2cc(Nc3ccc(N4CCN(C5CN(c6ccc(C7CCC(=O)NC7=O)cc6)C5)CC4)cn3)ncn2)ccc1[C@@H](C)NC(=O)c1nc(C(C)(C)C)no1` (stereo partly drawn) [Example 41, 3-(tert-butyl)-N-((1R)-1-(4-(6-((5-(4-(1-(4-(2,6-dioxopiperidin-3-yl)phenyl)azetidin-3-yl)piperazin-1-yl)pyridin-2-yl)amino)pyrimidin-4-yl)-2-methylphenyl)ethyl)-1,2,4-oxadiazole-5-carboxamide], in the assay with HEK-293 cells, the IC50 is over 10000 nM. Further, half-maximal degradation on BTK (DC50) was put at 2.47 nM.
With `Cc1cc(-c2cc(Nc3ccc(N4CCN(C5CN(C6CN(c7ccc(C8CCC(=O)NC8=O)cc7)C6)C5)CC4)cn3)ncn2)ccc1[C@@H](C)NC(=O)c1nc(C(C)(C)C)no1` (stereo partly drawn) [Example 42, 3-(tert-butyl)-N-((1R)-1-(4-(6-((5-(4-(1′-(4-(2,6-dioxopiperidin-3-yl)phenyl)-[1,3′-biazetidin]-3-yl)piperazin-1-yl)pyridin-2-yl)amino)pyrimidin-4-yl)-2-methylphenyl)ethyl)-1,2,4-oxadiazole-5-carboxamide], in the assay with HEK-293 cells, the IC50 is over 10000 nM. At BTK, this compound gave a DC50 of 1.2 nM.
The matching figures for `Cc1cc(-c2cc(Nc3ccc(N4CCN(C5CC6(CCN(c7ccc(N8CCC(=O)NC8=O)cc7)CC6)C5)CC4)cn3)ncn2)ccc1[C@@H](C)NC(=O)c1nc(C(C)(C)C)no1` [Example 43, (R)-3-(tert-butyl)-N-(1-(4-(6-((5-(4-(7-(4-(2,4-dioxotetrahydropyrimidin-1(2H)-yl)phenyl)-7-azaspiro[3.5]nonan-2-yl)piperazin-1-yl)pyridin-2-yl)amino)pyrimidin-4-yl)-2-methylphenyl)ethyl)-14-oxadiazole-5-carboxamide]: over 10000 nM and 2.99 nM.
Turning to `Cc1cc(-c2cc(Nc3ccc(N4CCN(C5CN(C6CN(c7ccc8c(c7)C(=O)N(C7CCC(=O)NC7=O)C8=O)C6)C5)CC4)cn3)ncn2)ccc1[C@@H](C)NC(=O)c1nc(C(C)(C)C)no1` (stereo partly drawn) [Example 44, 3-(tert-butyl)-N-((1R)-1-(4-(6-((5-(4-(1′-(2-(2,6-dioxopiperidin-3-yl)-1,3-dioxoisoindolin-5-yl)-[1,3′-biazetidin]-3-yl)piperazin-1-yl)pyridin-2-yl)amino)pyrimidin-4-yl)-2-methylphenyl)ethyl)-1,2,4-oxadiazole-5-carboxamide], in the assay on HEK-293 cells, the IC50 is over 10000 nM. The DC50 at BTK stood at 1.63 nM.
Take `Cc1cc(-c2cc(Nc3ccc(N4CCN(CCc5cc(F)c(C6CCC(=O)NC6=O)c(F)c5)CC4)cn3)ncn2)ccc1[C@@H](C)NC(=O)c1nc(C(C)(C)C)no1` (stereo partly drawn) [Example 45, 3-(tert-butyl)-N-((1R)-1-(4-(6-((5-(4-(4-(2,6-dioxopiperidin-3-yl)-3,5-difluorophenethyl)piperazin-1-yl)pyridin-2-yl)amino)pyrimidin-4-yl)-2-methylphenyl)ethyl)-1,2,4-oxadiazole-5-carboxamide]: the IC50 with HEK-293 cells was over 10000 nM. At BTK, this compound returned a DC50 of 1.75 nM.
Consider `Cc1cc(-c2cc(Nc3ccc(N4CCN(CCc5ccc(C6CCC(=O)NC6=O)c(F)c5)CC4)cn3)ncn2)ccc1[C@@H](C)NC(=O)c1nc(C(C)(C)C)no1` (stereo partly drawn) [Example 47, 3-(tert-butyl)-N-((1R)-1-(4-(6-((5-(4-(4-(2,6-dioxopiperidin-3-yl)-3-fluorophenethyl)piperazin-1-yl)pyridin-2-yl)amino)pyrimidin-4-yl)-2-methylphenyl)ethyl)-1,2,4-oxadiazole-5-carboxamide], for which the IC50 in the assay on HEK-293 cells is over 10000 nM. Also, the DC50 on BTK amounted to 0.96 nM.
For the compound `Cc1cc(CCN2CCN(c3ccc(Nc4cc(-c5ccc([C@@H](C)NC(=O)c6nc(C(C)(C)C)no6)c(C)c5)ncn4)nc3)CC2)ccc1C1CCC(=O)NC1=O` (stereo partly drawn) [Example 48, 3-(tert-butyl)-N-((1R)-1-(4-(6-((5-(4-(4-(2,6-dioxopiperidin-3-yl)-3-methylphenethyl)piperazin-1-yl)pyridin-2-yl)amino)pyrimidin-4-yl)-2-methylphenyl)ethyl)-1,2,4-oxadiazole-5-carboxamide], the IC50 in the assay on HEK-293 cells was over 10000 nM. The compound also returned a DC50 at BTK of 1.44 nM.
Consider `Cc1cc(-c2cc(Nc3ccc(N4CCN(CCc5ccc6c(c5)oc(=O)n6C5CCC(=O)NC5=O)CC4)cn3)ncn2)ccc1[C@@H](C)NC(=O)c1nc(C(C)(C)C)no1` (stereo partly drawn) [Example 49, 3-(tert-butyl)-N-((1R)-1-(4-(6-((5-(4-(2-(3-(2,6-dioxopiperidin-3-yl)-2-oxo-2,3-dihydrobenzo[d]oxazol-6-yl)ethyl)piperazin-1-yl)pyridin-2-yl)amino)pyrimidin-4-yl)-2-methylphenyl)ethyl)-1,2,4-oxadiazole-5-carboxamide], for which the IC50 with HEK-293 cells is over 10000 nM. The DC50 at BTK was 0.486 nM.
On to `Cc1cc(-c2cc(Nc3ccc(N4CCN(CCc5cccc6c5n(C)c(=O)n6C5CCC(=O)NC5=O)CC4)cn3)ncn2)ccc1[C@@H](C)NC(=O)c1nc(C(C)(C)C)no1` (stereo partly drawn) [Example 50, 3-(tert-butyl)-N-((1R)-1-(4-(6-((5-(4-(2-(1-(2,6-dioxopiperidin-3-yl)-3-methyl-2-oxo-2,3-dihydro-1H-benzo[d]imidazol-4-yl)ethyl)piperazin-1-yl)pyridin-2-yl)amino)pyrimidin-4-yl)-2-methylphenyl)ethyl)-1,2,4-oxadiazole-5-carboxamide], for which the IC50 in the assay with HEK-293 cells stood at 920 nM. Besides, the DC50 on BTK amounted to 0.632 nM.
In the same order, the values of `Cc1cc(-c2cc(Nc3ccc(N4CCN(CCc5cccc6c5oc(=O)n6C5CCC(=O)NC5=O)CC4)cn3)ncn2)ccc1[C@@H](C)NC(=O)c1nc(C(C)(C)C)no1` (stereo partly drawn) [Example 51, 3-(tert-butyl)-N-((1R)-1-(4-(6-((5-(4-(2-(3-(2,6-dioxopiperidin-3-yl)-2-oxo-2,3-dihydrobenzo[d]oxazol-7-yl)ethyl)piperazin-1-yl)pyridin-2-yl)amino)pyrimidin-4-yl)-2-methylphenyl)ethyl)-1,2,4-oxadiazole-5-carboxamide formate] are over 10000 nM and 1.35 nM.
On to `Cc1cc(-c2cc(Nc3ccc(N4CCN([C@H]5C[C@@H](c6ccc(N[C@@H]7CCC(=O)NC7=O)cc6)C5)CC4)cn3)ncn2)ccc1[C@@H](C)NC(=O)c1nc(C(C)(C)C)no1` [Example 52, 3-(tert-butyl)-N—((R)-1-(4-(6-((5-(4-((1S,3s)-3-(4-(((R)-2,6-dioxopiperidin-3-yl)amino)phenyl)cyclobutyl)piperazin-1-yl)pyridin-2-yl)amino)pyrimidin-4-yl)-2-methylphenyl)ethyl)-1,2,4-oxadiazole-5-carboxamide], for which the IC50 in the assay on HEK-293 cells is over 10000 nM. Besides, half-maximal degradation at BTK (DC50) was put at 3.04 nM.
The matching figures for `Cc1cc(-c2cc(Nc3ccc(N4CCN([C@H]5C[C@H](c6ccc(N[C@H]7CCC(=O)NC7=O)cc6)C5)CC4)cn3)ncn2)ccc1[C@@H](C)NC(=O)c1nc(C(C)(C)C)no1` [Example 53, 3-(tert-butyl)-N—((R)-1-(4-(6-((5-(4-((1S,3r)-3-(4-(((S)-2,6-dioxopiperidin-3-yl)amino)phenyl)cyclobutyl)piperazin-1-yl)pyridin-2-yl)amino)pyrimidin-4-yl)-2-methylphenyl)ethyl)-1,2,4-oxadiazole-5-carboxamide formate]: over 10000 nM and 1.91 nM.
As to `Cc1cc(-c2cc(Nc3ccc(N4CCN([C@H]5C[C@@H](c6ccc(N[C@H]7CCC(=O)NC7=O)cc6)C5)CC4)cn3)ncn2)ccc1[C@@H](C)NC(=O)c1nc(C(C)(C)C)no1` [Example 54, 3-(tert-butyl)-N—((R)-1-(4-(6-((5-(4-((1R,3s)-3-(4-(((S)-2,6-dioxopiperidin-3-yl)amino)phenyl)cyclobutyl)piperazin-1-yl)pyridin-2-yl)amino)pyrimidin-4-yl)-2-methylphenyl)ethyl)-1,2,4-oxadiazole-5-carboxamide], in the assay with HEK-293 cells, the IC50 was over 10000 nM. The DC50 at BTK was 4.13 nM.
